# System: accumulation of sebum
# Assay: Anti-seborrheic activity on the shaved back of rats (browning, second evaluation method), % sebum reduction
# Format: in vivo
# Conditions: topical, once daily on 9 of 14 days, male Wistar rats, treated side vs untreated control group; for % Sebum reduction at the indicated concentration of active substance: 0.02%: 0.02 wt. % in alcohol; for % Sebum reduction at the indicated concentration of active substance: 0.05%: 0.05 wt. % in alcohol; for % Sebum reduction at the indicated concentration of active substance: 0.1%: 0.1 wt. % in alcohol
# Source text: Male Wistar rats having a body weight ranging from 220 to 230 g at the beginning of the tests were used as the test animals. The accumulation of sebum in the test animals was examined by visually observing the degree of browning on the shaved back of the rats. Browning is caused by the accumulation of the brown skin surface lipid secreted by the rats. This test is based on the observation that young female rats, as well as male rats washed with a surfactant solution or with a lipid solvent or male rats systematically treated with estrogens show only a normal light, pink-colored skin after shaving, while at the same time, only comparatively very small quantities of lipids can be extracted from the shaved hairs.
# In order to assess the anti-seborrheic effectiveness of the alkoxy and alkylbenzyloxy benzoic acid esters of the present invention, alcoholic solutions of test substances (B), (E), (F), (H) and (I) were each brushed onto one side of the back of 6 rats. The benzoic acid ester derivatives tested were applied in concentrations ranging from 0.02 to 0.1 wt. % in the alcohol.
# The test period consisted of 14 days. The test substances were applied, once daily on 9 of the 14 days. A second group of 6 rats which were not treated was used as an additional control. At the end of the test period, the backs and sides of the animals were shaved and visually inspected. The examination was done independently by an evaluation panel composed of 6 people using double blind techniques.
# A second criterion of evaluation is the intensity of the brown coloration in the shaved area. The following scale is used for this analysis:
# According to this second method of evaluation, differences in the total points between the untreated control animals and the treated and untreated sides (ΔP) of the test animals respectively are calculated. Significant differences between the total point values assigned to the control animals and the values assigned to the treated side of the test animals again indicate the antiseborrheic effectiveness of a substance.
# The results are presented in terms of sebum reduction percentage. The sebum reduction percentage is calculated from the point differences by determining the quotient of the difference in total points between the control group and the treated side of the test animals (ΔP) and the total number of points for the control group (Pk) and then expressing the value obtained in percent. [formula]
Molecule,% Sebum reduction at the indicated concentration of active substance: 0.02%,% Sebum reduction at the indicated concentration of active substance: 0.05%,% Sebum reduction at the indicated concentration of active substance: 0.1%
4-isotridecyloxy-benzoic acid methylester,83%,83%,–
"CCCCCCCCCCCCOc1ccc(C(=O)OC)cc1 [4-dodecyloxy benzoic acid methyl ester, reference compound]",–,0%,18%
"CCCCCCCCCCCCOc1ccc(C(=O)OCCCO)cc1 [4-dodecyloxy benzoic acid-3-hydroxypropyl ester, reference compound]",–,18%,33%
"COC(=O)c1ccc(OCCC(C)CC(C)(C)C)cc1 (stereo not drawn) [Compound B, 4-(3,5,5-trimethylhexyloxy)-benzoic acid methylester]",–,36%,76%
"COC(=O)c1ccc(OCc2ccc(C(C)(C)C)cc2)cc1 [Compound E, 4-(4-tert-butylbenzyloxy)-benzoic acid methylester]",10%,77%,–
"CCCCCCCCCCCCOCCOc1ccc(C(=O)OC)cc1 [F, 4-(2-dodecyloxyethoxy)-benzoic acid methylester]",–,63%,–
"CCCCCCCCCCCCOCCOc1ccc(C(=O)OCCCO)cc1 [H, 4-(2-dodecyloxy-ethoxy)-benzoic acid-3-hydroxypropyl ester]",–,71%,–

# — US4684665A, “Sebosuppressive benzoic acid ester derivatives and cosmetic preparations containing them” (Henkel Kommanditgesellschaft auf Aktien, priority 1985, dated 1987)
